Test results from paper PMC9281440, “In Vivo Distribution and Therapeutic Efficacy of Radioiodine-Labeled pH-Low Insertion Peptide Variant 3 in a Mouse Model of Breast Cancer” (Molecular Imaging, 2022).
Where two headings read alike, the source gives them in different places. Peptide text beside a SMILES is read from it.

Test: Micro-SPECT/CT imaging and distribution of 125I-labeled pHLIPs
Type: in vivo, mouse
Conditions: female, athymic BALB/c nude, mouse, total radioactivity, 3.7 MBq iv, micro-SPECT/CT ROI, mean ± SD, n = 4; for tissue uptake at 24 h: 24 h pi; for tissue uptake at 48 h: 48 h pi; for tissue uptake at 1 h: 1 h pi; for tissue uptake at 2 h: 2 h pi; for tissue uptake at 4 h: 4 h pi
Protocol: Five-week-old female athymic BALB/c nude mice (Shanghai Slaccas Experiment Animal Corp., Shanghai, China) were used in our study. Mouse xenograft models of MDA-MB-231, 4T1, and SK-BR-3 cells were produced by the subcutaneous injection of 5 × 10^6 cells (suspended in 150 μL PBS) into the right axilla of each mouse. The mice were used in subsequent experiments when tumor diameter reached 0.5-0.9 cm. The study protocol was approved by the institutional review board and by the Experimental Animal Center of Ruijin Hospital affiliated to the School of Medicine of Shanghai Jiao Tong University.
Three days before micro-SPECT/CT imaging, 300 μL of 1% Kl solution was administered to mice by oral gavage once a day, and 0.1% Kl was added into the drinking water to block thyroid gland activity. Mice-bearing MDA-MB-231, 4T1, or SK-BR-3 tumors were intravenously injected with 3.7 MBq of ^125I-WT-pHLIP or ^125I-Var3-pHLIP. Each group contained four mice. The mice were anesthetized by isoflurane inhalation, placed in the prone position, and scanned using a four-head SPECT/CT system (U-SPECT/CT, MI-Lab, Netherlands) and dedicated multipinhole apertures with a diameter of 1.5 mm at 1, 2, 4, 24, and 48 h after injection of ^125I-labeled peptides. CT images were acquired after static SPECT imaging (10 min/frame). The images were reconstructed using U-SPECT REC software and analyzed using PMOD software version 3.9 (Switzerland). Regions of interest (ROIs) were drawn in the tumors and organs, including the brain, heart, liver, lungs, kidneys, intestine, and bladder, at various time points. The radioactivity per gram (ID%/g) in the ROIs was measured to obtain the dynamic tumor-to-background ratio (TBR, muscle tissue was used as the background) and the in vivo distribution and kinetics of ^125I-WT-pHLIP and ^125I-Var3-pHLIP in the xenograft models of BC.

[1] = heart, MDA-MB-231 tumor-bearing nude mice, read-out: Distribution, Heart
[2] = heart, SK-BR-3 tumor-bearing nude mice, read-out: Distribution, Heart
[3] = intestine, SK-BR-3 tumor-bearing nude mice, read-out: Distribution, Intestine
[4] = kidney, MDA-MB-231 tumor-bearing nude mice, read-out: Distribution, Kidney
[5] = kidney, SK-BR-3 tumor-bearing nude mice, read-out: Distribution, Kidney
[6] = liver, MDA-MB-231 tumor-bearing nude mice, read-out: Distribution, Liver
[7] = liver, SK-BR-3 tumor-bearing nude mice, read-out: Distribution, Liver
[8] = lung, MDA-MB-231 tumor-bearing nude mice, read-out: Distribution, Lung
[9] = lung, SK-BR-3 tumor-bearing nude mice, read-out: Distribution, Lung
[10] = muscle, SK-BR-3 tumor-bearing nude mice, read-out: Distribution, Muscle

CC(C)C[C@H](NC(=O)[C@H](Cc1ccc(O)c(I)c1)NC(=O)[C@H](C)NC(=O)[C@H](CCCNC(=N)N)NC(=O)[C@H](Cc1c[nH]c2ccccc12)NC(=O)[C@@H]1CCCN1C(=O)[C@H](CC(N)=O)NC(=O)[C@H](CCC(N)=O)NC(=O)[C@H](CC(=O)O)NC(=O)[C@H](CC(=O)O)NC(=O)[C@H](CS)NC(=O)[C@H](C)N)C(=O)N[C@@H](CC(=O)O)C(=O)N[C@@H](CC(C)C)C(=O)N[C@@H](CC(C)C)C(=O)N[C@@H](Cc1ccccc1)C(=O)N1CCC[C@H]1C(=O)N[C@H](C(=O)N[C@@H](CC(=O)O)C(=O)N[C@H](C(=O)N[C@@H](CC(C)C)C(=O)N[C@@H](CC(C)C)C(=O)N[C@@H](CC(C)C)C(=O)N[C@@H](CC(=O)O)C(=O)N[C@@H](CC(C)C)C(=O)N[C@@H](CC(C)C)C(=O)N[C@@H](Cc1c[nH]c2ccccc12)C(=O)N[C@@H](CCCCN)C(=O)O)[C@@H](C)O)[C@@H](C)O [125I-Var3-pHLIP] (HELM PEPTIDE1{A.C.D.D.Q.N.P.W.R.A.[O=C([C@H](Cc1ccc(O)c(I)c1)N[*:1])[*:2]].L.D.L.L.F.P.T.D.T.L.L.L.D.L.L.W.K}$$$$V2.0; N-terminus and C-terminus assumed)
tissue uptake at 24 h [1]: 0.39 ± 0.13 %ID/g | tissue uptake at 48 h [1]: 0.14 ± 0.05 %ID/g | tissue uptake at 1 h [2]: 10.3 ± 0.54 %ID/g | tissue uptake at 2 h [2]: 8.89 ± 0.18 %ID/g | tissue uptake at 4 h [2]: 6.02 ± 1.35 %ID/g | tissue uptake at 24 h [2]: 0.38 ± 0.08 %ID/g | tissue uptake at 48 h [2]: 0.1 ± 0.02 %ID/g | tissue uptake at 1 h [3]: 3.05 ± 0.68 %ID/g | tissue uptake at 2 h [3]: 3.01 ± 0.26 %ID/g | tissue uptake at 4 h [3]: 2.38 ± 0.68 %ID/g | tissue uptake at 24 h [3]: 0.31 ± 0.14 %ID/g | tissue uptake at 48 h [3]: 0.07 ± 0.04 %ID/g | tissue uptake at 1 h [4]: 5.66 ± 2.26 %ID/g | tissue uptake at 2 h [4]: 5.61 ± 0.71 %ID/g | tissue uptake at 4 h [4]: 3.8 ± 0.89 %ID/g | tissue uptake at 24 h [4]: 0.41 ± 0.04 %ID/g | tissue uptake at 48 h [4]: 0.25 ± 0.13 %ID/g | tissue uptake at 1 h [5]: 6.67 ± 1.07 %ID/g | tissue uptake at 2 h [5]: 4.24 ± 0.97 %ID/g | tissue uptake at 4 h [5]: 3.56 ± 0.65 %ID/g | tissue uptake at 24 h [5]: 0.42 ± 0.11 %ID/g | tissue uptake at 48 h [5]: 0.18 ± 0.1 %ID/g | tissue uptake at 1 h [6]: 10.3 ± 1.33 %ID/g | tissue uptake at 2 h [6]: 10.2 ± 0.66 %ID/g | tissue uptake at 4 h [6]: 8.11 ± 1.63 %ID/g | tissue uptake at 24 h [6]: 1 ± 0.54 %ID/g | tissue uptake at 48 h [6]: 0.4 ± 0.22 %ID/g | tissue uptake at 1 h [7]: 11.4 ± 0.87 %ID/g | tissue uptake at 2 h [7]: 10.4 ± 1.6 %ID/g | tissue uptake at 4 h [7]: 11.4 ± 2.75 %ID/g | tissue uptake at 24 h [7]: 0.81 ± 0.2 %ID/g | tissue uptake at 48 h [7]: 0.23 ± 0.02 %ID/g | tissue uptake at 1 h [8]: 9.64 ± 0.8 %ID/g | tissue uptake at 2 h [8]: 9.1 ± 0.61 %ID/g | tissue uptake at 4 h [8]: 6.6 ± 0.88 %ID/g | tissue uptake at 24 h [8]: 0.49 ± 0.22 %ID/g | tissue uptake at 48 h [8]: 0.18 ± 0.05 %ID/g | tissue uptake at 1 h [9]: 9.81 ± 0.82 %ID/g | tissue uptake at 2 h [9]: 9.31 ± 1.03 %ID/g | tissue uptake at 4 h [9]: 6.93 ± 1.24 %ID/g | tissue uptake at 24 h [9]: 0.42 ± 0.12 %ID/g | tissue uptake at 48 h [9]: 0.14 ± 0.05 %ID/g | tissue uptake at 1 h [10]: 1.33 ± 0.3 %ID/g | tissue uptake at 2 h [10]: 1.21 ± 0.26 %ID/g | tissue uptake at 4 h [10]: 0.7 ± 0.12 %ID/g | tissue uptake at 24 h [10]: 0.06 ± 0.02 %ID/g | tissue uptake at 48 h [10]: 0.04 ± 0.02 %ID/g | tissue uptake at 1 h (SK-BR-3 tumor-bearing nude mice, read-out: Distribution, Tumor): 2.68 ± 1.34 %ID/g
